pIC50: −log10 of the molar value.
Test system: sAPPβ release, SH-SY5Y cells
Test: sAPPβ release assay
Format: cell-based
Settings: compounds incubated 17 h, MSD detection
Protocol: Thaw cells and seed at a conc. of around 10000 cells/well in DMEM/F-12 with Glutamax, 10% FCS and 1% non-essential amino acids to a 384-well tissue culture treated plate, 100 μL cell susp/well. […] The cell medium was removed, followed by addition of 30 μL compound diluted in DMEM/F-12 with Glutamax, 10% FCS, 1% non-essential amino acids and 1% PeSt to a final conc. of 1% DMSO. The compounds were incubated with the cells for 17 h (overnight) at 37° C., 5% CO2. Meso Scale Discovery (MSD) plates were used for the detection of sAPPβ release. MSD sAPPβ plates were blocked in 1% BSA in Tris wash buffer (40 μL/well) for 1 h on shake at r.t. and washed 1 time in Tris wash buffer (40 μL/well). 20 μL of medium was transferred to the pre-blocked and washed MSD sAPPβ microplates, and the cell plates were further used in an ATP assay to measure cytotoxicity. The MSD plates were incubated with shaking at r.t. for 2 h and the media discarded. 10 μL detection antibody was added (1 nM) per well followed by incubation with shaking at r.t. for 2 h and then discarded. 40 μL Read Buffer was added per well and the plates were read in a SECTOR Imager.

| Compound | pIC50 | further results |
| --- | --- | --- |
| CCC1=NC2(N=C1N)c1cc(-c3cccc(C#N)c3)ccc1C[C@]21CC[C@@H](OC)CC1 (single isomer, unassigned) [Example 71 Isomer 1, 3-[(1r,4r)-4″-amino-5″-ethyl-4-methoxy-3′H-dispiro-[cyclohexane-1,2′-indene-1′,2″-imidazol]-6′-yl]benzonitrile] | – | pIC50 (listed as 71 Isomer 1): 8.28 |
| CCC1=NC2(N=C1N)c1cc(-c3cccc(C#N)c3)ccc1C[C@]21CC[C@@H](OC)CC1 (single isomer, unassigned) [Example 71 Isomer 2, 3-[(1r,4r)-4″-amino-5″-ethyl-4-methoxy-3′H-dispiro-[cyclohexane-1,2′-indene-1′,2″-imidazol]-6′-yl]benzonitrile] | – | pIC50 (listed as 71 Isomer 2): 6.12 |
| CO[C@H]1CC[C@]2(CC1)Cc1ccc(C#CC(C)(C)C)cc1C21N=C(C)C(N)=N1 (single isomer, unassigned; isomer 1) [Example 20h Isomer 1, (1r,4r)-6′-(3,3-dimethylbut-1-yn-1-yl)-4-methoxy-5″-methyl-3′H-dispiro[cyclohexane-1,2′-indene-1′,2″-imidazol]-4″-amine] | 6.56 | – |
| CO[C@H]1CC[C@]2(CC1)Cc1ccc(-c3cc(F)cc(C#N)c3)cc1C21N=C(C)C(N)=N1 (single isomer, unassigned; isomer 1) [Example 76 Isomer 1, 3-[(1r,4r)-4″-amino-4-methoxy-5″-methyl-3′H-dispiro[cyclohexane-1,2′-indene-1′,2″-imidazol]-6′-yl]-5-fluorobenzonitrile] | 8.92 | – |
| CO[C@H]1CC[C@]2(CC1)Cc1ccc(-c3cc(Br)cc(C#N)c3)cc1C21N=C(C)C(N)=N1 (single isomer, unassigned; isomer 1) [Example 94 Isomer 1, 3-[(1r,4r)-4″-Amino-4-methoxy-5″-methyl-3′H-dispiro[cyclohexane-1,2′-indene-1′,2″-imidazol]-6′-yl]-5-bromobenzonitrile] | 9.77 | – |

Source: US8865911B2, “Compounds and their use as BACE inhibitors” (Astrazeneca AB, priority 2010, dated 2014)
